# Results published in patent US20240336566A1, “CRYSTALLINE FORMS OF A COMPOUND FOR THE TARGETED DEGRADATION OF THE ANDROGEN RECEPTOR” (Arvinas Operations, Inc., priority 2023, published 2024).
# Assay: Primary salt screen: XRPD post temperature cycling/evaporation, post drying and post storage at 40° C./75% RH
# Assay type: physicochemical
# Details: Compound A + 1.05 eq. counterion (= label); for XRPD results post drying: dried under vacuum at 40° C.; for XRPD results post 40° C./75% RH: stored ca. 20 hours
# Experimental: • 30 mg samples of Compound A were weighed out into 2 mL screw cap sample vials for 96 experiments. To these, 200 μL of the appropriate solvent system was added to dissolve the material or form a slurry. See Table 16 for the solvent systems selected for the primary salt screen.
# • 1.05 eq. of solid counterions were weighed into six separate vials each and 1 molar stock solutions were prepared for liquid counterions in 5 mL of THF. See Table 17 for selected counterions and mass/volume needed for 1.05 eq. additions. • 100 μL of the appropriate solvent was added to the solid counterions.
# The solution/slurry of counterion was added to the solution/slurry of the free base material.
# • The samples were placed in an incubator shaker to temperature cycle between ambient and 40° C. over 4 hour cycles. • After ca. 72 hours of temperature cycling, observations were noted, see Table 19.
# • Where slurries were obtained, the solids were isolated via centrifugation. Solids and gels were analyzed by XRPD.
# Any samples that were clear solutions after temperature cycling were left to evaporate at ambient conditions. See Table 20 for observations made after evaporation. Solids obtained through evaporation were analyzed by XRPD.
# • The samples obtained from temperature cycling were dried under vacuum at 40° C. for ca. 20 hours while the samples obtained from evaporation were dried under vacuum at 40° C. for ca. 4 hours. […]
SMILES,"XRPD results post temperature cycling and evaporation (1,4-Dioxane)","XRPD results post drying (1,4-Dioxane)","XRPD results post 40° C./75% RH (1,4-Dioxane)",XRPD results post temperature cycling and evaporation (DCM),XRPD results post temperature cycling and evaporation (DCM:Methanol (50:50 % v/v)),XRPD results post drying (DCM:Methanol (50:50 % v/v)),XRPD results post 40° C./75% RH (DCM:Methanol (50:50 % v/v)),XRPD results post drying (DCM),XRPD results post 40° C./75% RH (DCM),XRPD results post temperature cycling and evaporation (DMSO:Water (50:50 % v/v)),XRPD results post drying (DMSO:Water (50:50 % v/v)),XRPD results post 40° C./75% RH (DMSO:Water (50:50 % v/v)),XRPD results post temperature cycling and evaporation (THF),XRPD results post temperature cycling and evaporation (THF:Water (98:2 % v/v)),XRPD results post drying (THF:Water (98:2 % v/v)),XRPD results post 40° C./75% RH (THF:Water (98:2 % v/v)),XRPD results post drying (THF),XRPD results post 40° C./75% RH (THF)
Cc1ccc(S(=O)(=O)O)cc1 [p-Toluenesulfonic acid],A t,A t,A t,A e,A e,A e,A e,A e,A e,A t,A t,A t,S t,A e,A e,A e,–,–
O=C(O)CC(=O)O [Malonic acid],–,–,–,A e,A e,A e,A e,A e,A e,A t,–,–,A e,A e,A e,A e,A e,A e
O=C(O)C(O)C(O)C(=O)O (stereo not drawn) [l-Tartaric acid],A t,A t,A t,A e,A e,A e,A e,A e,A e,A t,–,–,A e,A e,A e,A e,A e,A e
O=C(O)/C=C\C(=O)O [Maleic acid],S t *,–,A t h,C e,A e,A e,A e,A e d,A e,A t,A t,A t,A e,A e,A e,A e,A e,A e
O=C(O)CC(O)(CC(=O)O)C(=O)O [Citric acid],A t,A t,A t,A e,A e,A e,A e,A e,A e,A t,A t,A t,A e,A e,A e,A e,A e,A e
Cl [Hydrochloric acid],–,–,–,t S,t S,–,–,–,–,–,–,–,–,–,–,–,–,–
O=C(O)CCC(=O)O [Succinic acid],–,–,–,C e,–,–,–,A e d,C e h,A t,–,–,–,–,–,–,–,–
